The record followed here is ChEMBL document CHEMBL3232865, “Development and characterization of 3-(benzylsulfonamido)benzamides as potent and selective SIRT2 inhibitors” (Eur J Med Chem, 2014).

Data set [1] can be described thus: in vitro. The settings on record: human, microsomes.
Data set [2] in a line: in vitro. The following applies: human, microsomes. This is another data set of the same source.
The nature of data set [3]: in vitro. The settings on record: mouse, microsomes.
A short description of data set [4]: in vitro. The settings on record: mouse, microsomes. The source holds these as a separate data set.
For data set [5] the following is noted: human, microsomes, 1 µM.
For data set [6] the following is noted: mouse, microsomes, 1 µM.
The conditions of data set [7]: mouse, microsomes, 1 µM. This is another data set of the same source.
For data set [8] the following is noted: human, microsomes, 1 h, 1 µM.
Data set [9] is described as follows: in vitro. The following applies: human, microsomes. The source holds these as a separate data set.
Data set [10] is described as follows: in vitro. The following applies: human, microsomes. The source holds these as a separate data set.
Data set [11] can be described thus: in vitro. The settings on record: human, microsomes. The source holds these as a separate data set.
Data set [12] is described as follows: in vitro. The settings on record: mouse, microsomes. The source holds these as a separate data set.
Data set [13] in a line: in vitro. The settings on record: mouse, microsomes. The source holds these as a separate data set.
Data set [14] in a line: in vitro. The following applies: mouse, microsomes. The source holds these as a separate data set.
A short description of data set [15]: Half life in mouse plasma at 5 uM. It is filed as ADME, cell-free.
Data set [16] can be described thus: Metabolic stability in mouse plasma assessed as compound remaining at 5 uM. It is filed as ADME, cell-free. The settings on record: read-out: Stability.

Take `CN(c1ccc(F)cc1)S(=O)(=O)c1cccc(C(=O)Nc2ccc(C#N)cc2)c1`: the remaining at 1 µM in the data set “in vitro [1]” is 16%.

With `CN(c1ccc(Cl)cc1)S(=O)(=O)c1cccc(C(=O)Nc2ccc(S(C)(=O)=O)cc2)c1`, the remaining at 1 µM was 2% in the data set “in vitro [1]”, 112% in the data set “in vitro [2]”, 4% in the data set “in vitro [3]” and 100% in the data set “in vitro [4]”.

Turning to `CN(c1ccc(Cl)cc1)S(=O)(=O)c1cccc(C(=O)Nc2ccc(C#N)cn2)c1`, the remaining at 1 µM in the data set “in vitro [1]” amounted to 2%; in the data set “in vitro [2]” it was 91%; in the data set “in vitro [3]”, 1%; in “in vitro [4]”, 96%.

As to `COc1ccc(N(C)S(=O)(=O)c2cccc(C(=O)Nc3ccc(C#N)cc3)c2)cc1`, the remaining at 1 µM in “in vitro [1]” is 2%; in “in vitro [2]”, 106%; in “in vitro [3]” it was 2%; in “in vitro [4]”, 90%.

`CC(=O)c1ccc(N(C)S(=O)(=O)c2cccc(C(=O)Nc3ccc(Cl)cc3)c2)cc1`: the remaining at 1 µM is 12% in the data set “in vitro [1]”, 0% in the data set “in vitro [3]” and 108% in the data set “in vitro [4]”.

Consider `CC(=O)c1ccc(N(C)S(=O)(=O)c2cccc(C(=O)Nc3ccc(Cl)cn3)c2)cc1`, for which the remaining at 1 µM amounted to 12% in “in vitro [1]”, 82% in “in vitro [2]”, 0% in the data set “in vitro [3]” and 91% in the data set “in vitro [4]”.

Take `CN(c1ccc(S(C)(=O)=O)cc1)S(=O)(=O)c1cccc(NC(=O)c2ccc(Br)cc2)c1`: the values for the t1/2 in [5] and in data set [7] were 75.7 min and 1.7 min, respectively. Also, the CL in [6] amounted to 136 µL/min/mg. Further, the Stability in data set [8] was found to be 0.9%. For the same compound, the microsomal CLint at 1 µM in “in vitro [9]” amounted to 512 µL/min/mg; in the data set “in vitro [11]” it was 31 µL/min/mg; in the data set “in vitro [12]” it was 945 µL/min/mg. Also, the half-life at 1 µM in “in vitro [10]” worked out at 4.5 min; in the data set “in vitro [13]”, 2.45 min. The remaining at 1 h, 1 µM in the data set “in vitro [14]” was found to be 1.5%.

On to `CC(C)[N+](C)(CCOC(=O)C1c2ccccc2Oc2ccccc21)C(C)C` [PROPANTHELINE], for which the half-life at 5 µM in [15] is 18 min. Also, the remaining at 5 µM in [16] is 3.4%.
